What was measured:
[1] = tested on: EL3187; experiment: EL3187 (lung) patient-derived xenograft (PDX) model; format: in vivo, mouse
Experimental: For xenograft models of H1373, HCC44, MiaPaca-2, SW1463, SW837, KYSE-410 and UM-UC-3, typically 5-10×10^6 cells in a 1:1 matrigel mix (0.2 mL total volume) are implanted by subcutaneous injection in hind leg of nude mice. […] Treatment is initiated with oral administration (gavage) of testing compound or vehicle (20% captisol, 25 mM phosphate, pH2.0) in 0.2 mL volume when tumor size reaches approximately 200-300 mg. Tumor growth and body weight are monitored over time to evaluate efficacy and signs of toxicity. For EL3187 PDX model, frozen vials containing tumor fragments are thawed at 37° C. in a water bath. The tumor fragments are transferred to 50 mL Falcon tube and the ice cold DMEM medium is slowly added into the tube to a total volume of 35 mL. Then the tumor fragments are centrifuged at 130×g for 2 minutes at 4° C. and supernatant is aspirated. This washing step is repeated twice and the tumor fragments are resuspended in 10 mL DMEM for implantation into athymic nude-Foxn1nu mice (Envigo RMS, Inc., Mount Comfort, Indiana). Once tumor volumes reach 800 to 1000 mm^3, animals are sacrificed and tumors are harvested using aseptic technique. Fresh tumors are cut into 10 to 15 mm^3 fragments and placed into cold Gibco hibernate medium. The tumor fragments are subcutaneously implanted into animals with a 10 g trochar needle. When tumor size reaches 200 to 300 mm^3, the animals are randomized for compound treatment.
Among models listed in Table 2, EL3187 is a patient-derived xenograft (PDX) model, and all other are tumor xenograft models.

[2] = NCT04956640 Phase 1a monotherapy safety: treatment-emergent adverse events; conditions: in vivo
From the text: A “DLT” is defined as any of the treatment-emergent adverse event (TEAEs), as defined by the National Cancer Institute's Common Terminology Criteria for Adverse Events, version 5.0 (NCI CTCAE v5.0), deemed clinically significant and occurring during the first 21 days of study drug per dose level per patient, unless the adverse event (AE) can be clearly related to the patient's underlying disease, other medical condition, or concomitant medications including any AEs attributed by the Investigator to the combination agent alone. A TEAE is defined as an AE that starts or worsens on or after the date of the first dose of study drug (for example on Study Day 1) through 28 days (+14 days window) after the date of the last dose of study drug or the first date starting new anticancer therapy, whichever is earlier. A Serious TEAE is defined as an TEAE that is grade 3 or higher based on severity grade assignment as defined by the National Cancer Institute's Common Terminology Criteria for Adverse Events, version 5.0 (NCI CTCAE v5.0). A Fatal TEAE is defined as an TEAE that is grade 5 based on severity grade assignment as defined by the National Cancer Institute's Common Terminology Criteria for Adverse Events, version 5.0 (NCI CTCAE v5.0). […]

## C=CC(=O)N1CCN2C(=O)c3cc(F)c(-c4ccc(F)c5sc(N)c(C#N)c45)c(Cl)c3OCC[C@H]2C1 (single isomer, unassigned) [Formula I]
[1]; 1 mg/kg BID x28
  tumor growth inhibition (%) or regression (− %): 89.2%
[1]; 1 mg/kg QD x28
  tumor growth inhibition (%) or regression (− %): 52%
[1]; 3 mg/kg BID x28
  tumor growth inhibition (%) or regression (− %): −91%
[1]; 3 mg/kg QD x28
  tumor growth inhibition (%) or regression (− %): −39.8%
[1]; 10 mg/kg BID x28
  tumor growth inhibition (%) or regression (− %): −96%
[1]; 10 mg/kg QD x28
  tumor growth inhibition (%) or regression (− %): −96%
[2]
  tolerability: well tolerated
